According to PubChem BioAssay AID328 (DTP/NCI, 2004):
Values joined by “and” are separate entries in the source; they are usually repeats but may differ in a detail not shown here. Equal entries are not always repeated. Inconclusive results and toxic doses are left out. How the source made its calls: active means survival T/C of 150% or more; inactive means T/C below 125% in these data.

Test system: BDF1 mice, P388 leukemia ip, median survival T/C
Test: NCI In Vivo Anticancer Drug Screen. Data for tumor model P388 Leukemia (intraperitoneal) in B6D2F1 (BDF1) mice
Details: endpoint: median survival time, higher = longer survival
In short: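 Vehicle-dosed animals serve as the reference; survival of compound-dosed, tumour-implanted mice is divided by it.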

[1] = dose: 50.0 mg/kg/injection, schedule: Q01DX009 (ip), vehicle: saline with Tween-80
[2] = dose: 25.0 mg/kg/injection, schedule: Q01DX009 (ip), vehicle: saline
[3] = dose: 100.0 mg/kg/injection, schedule: Q01DX009 (ip), vehicle: saline
[4] = dose: 50.0 mg/kg/injection, schedule: Q01DX009 (ip), vehicle: Klucel (hydroxypropylcellulose) (HPC)
[5] = dose: 50.0 mg/kg/injection, schedule: Q01DX009 (ip), vehicle: saline
[6] = dose: 100.0 mg/kg/injection, schedule: Q01DX009 (ip), vehicle: Klucel (hydroxypropylcellulose) (HPC)
[7] = dose: 100.0 mg/kg/injection, schedule: Q04DX003 (ip), vehicle: saline with Tween-80
[8] = dose: 200.0 mg/kg/injection, schedule: Q04DX003 (ip), vehicle: saline with Tween-80
[9] = dose: 400.0 mg/kg/injection, schedule: Q04DX003 (ip), vehicle: saline with Tween-80
[10] = dose: 200.0 mg/kg/injection, schedule: Q01DX009 (ip), vehicle: Klucel (hydroxypropylcellulose) (HPC)
[11] = dose: 100.0 mg/kg/injection, schedule: Q04DX003 (ip), vehicle: Klucel (hydroxypropylcellulose) (HPC)
[12] = dose: 200.0 mg/kg/injection, schedule: Q04DX003 (ip), vehicle: Klucel (hydroxypropylcellulose) (HPC)
[13] = dose: 400.0 mg/kg/injection, schedule: Q04DX003 (ip), vehicle: Klucel (hydroxypropylcellulose) (HPC)
[14] = dose: 100.0 mg/kg/injection, schedule: Q01DX009 (ip), vehicle: saline with Tween-80
[15] = dose: 200.0 mg/kg/injection, schedule: Q01DX009 (ip), vehicle: saline with Tween-80
[16] = dose: 15.0 mg/kg/injection, schedule: Q01DX009 (ip), vehicle: saline with Tween-80

Measured: T/C

COc1ccc(/C(C#N)=C\c2ccnc3ccccc23)cc1
inactive: dose: 12.5 mg/kg/injection, schedule: Q01DX009 (ip), vehicle: other 89 % of control | dose: 25.0 mg/kg/injection, schedule: Q01DX009 (ip), vehicle: other 93 % of control | dose: 50.0 mg/kg/injection, schedule: Q01DX009 (ip), vehicle: other 90 % of control | dose: 200.0 mg/kg/injection, schedule: Q01DX009 (ip), vehicle: other 100 % of control

O=[N+]([O-])c1ccc(S(=O)(=O)Cc2ccccc2)c2c1no[n+]2[O-]
inactive: dose: 25.0 mg/kg/injection, schedule: Q01DX009 (ip), vehicle: saline with Tween-80 116 % of control | [1] 116 % of control

CN(S(=O)(=O)CC(F)(F)F)S(=O)(=O)C(F)(F)F
inactive: dose: 6.25 mg/kg/injection, schedule: Q01DX009 (ip), vehicle: saline 100 % of control | [2] 108 % of control | [3] 100 % of control

Cc1ccc(C(=S)NC(=O)NS(C)(=O)=O)cc1
inactive: dose: 100.0 mg/kg/injection, schedule: Q01DX001 (ip), vehicle: saline with Tween-80 106 % of control | dose: 200.0 mg/kg/injection, schedule: Q01DX001 (ip), vehicle: saline with Tween-80 105 % of control | dose: 400.0 mg/kg/injection, schedule: Q01DX001 (ip), vehicle: saline with Tween-80 99 % of control

COC(=O)NC1=C(N2CC2)C(=O)C(NC(=O)OC)=C(N2CC2)C1=O
active: dose: 0.37 mg/kg/injection, schedule: Q01DX009 (ip), vehicle: saline 242 % of control and 222 % of control | dose: 0.75 mg/kg/injection, schedule: Q01DX009 (ip), vehicle: saline 252 % of control and 270 % of control

CCCCCCC(=O)NC1=C(N2CC2)C(=O)C(NC(=O)CCCCCC)=C(N2CC2)C1=O
inactive: dose: 200.0 mg/kg/injection, schedule: Q01DX009 (ip), vehicle: saline 107 % of control | [9] 95 % of control
active: dose: 25.0 mg/kg/injection, schedule: Q01DX009 (ip), vehicle: Klucel (hydroxypropylcellulose) (HPC) 182 % of control | [2] 234 % of control | [4] 208 % of control | [5] 241 % of control | dose: 66.0 mg/kg/injection, schedule: Q04DX003 (ip), vehicle: saline with Tween-80 166 % of control | [6] 154 % of control | [3] 328 % of control | [7] 191 % of control and 200 % of control | dose: 150.0 mg/kg/injection, schedule: Q04DX003 (ip), vehicle: saline with Tween-80 200 % of control | [8] 154 % of control

OCC12CCCCC1CC1(CC2)OCCO1 (stereo not drawn)
inactive: [3] 92 % of control | [7] 95 % of control | [8] 90 % of control | dose: 400.0 mg/kg/injection, schedule: Q01DX009 (ip), vehicle: saline 96 % of control | [9] 90 % of control

CC(=O)N1CCn2nccc21
inactive: dose: 100.0 mg/kg/injection, schedule: Q04DX003 (ip), vehicle: water 104 % of control | dose: 200.0 mg/kg/injection, schedule: Q04DX003 (ip), vehicle: water 90 % of control | dose: 400.0 mg/kg/injection, schedule: Q04DX003 (ip), vehicle: water 112 % of control

O=C1OC(=C(c2ccccc2)c2ccccc2)c2ccccc21
inactive: [4] 100 % of control | [6] 100 % of control | [10] 100 % of control

O=C(O)CCSc1ccccc1
inactive: [4] 90 % of control | dose: 50.0 mg/kg/injection, schedule: Q04DX003 (ip), vehicle: Klucel (hydroxypropylcellulose) (HPC) 95 % of control | [6] 100 % of control | [11] 100 % of control | [10] 109 % of control | [12] 100 % of control

O=C(CC(=O)C(F)(F)F)c1ccc2c(c1)Cc1ccccc1-2
inactive: [7] 124 % of control | [8] 111 % of control

Nc1nc(=S)c2[nH]cnc2[nH]1
inactive: dose: 0.12 mg/kg/injection, schedule: Q01DX009 (ip), vehicle: acetone 91 % of control | dose: 0.25 mg/kg/injection, schedule: Q01DX009 (ip), vehicle: acetone 100 % of control | dose: 0.5 mg/kg/injection, schedule: Q01DX009 (ip), vehicle: acetone 104 % of control | dose: 0.63 mg/kg/injection, schedule: Q01DX010 (ip), vehicle: saline 122 % of control | dose: 1.0 mg/kg/injection, schedule: Q01DX009 (ip), vehicle: acetone 112 % of control | dose: 1.25 mg/kg/injection, schedule: Q01DX010 (ip), vehicle: other 115 % of control | dose: 2.0 mg/kg/injection, schedule: Q01DX009 (ip), vehicle: acetone 95 % of control | dose: 2.5 mg/kg/injection, schedule: Q01DX010 (ip), vehicle: other 111 % of control | dose: 2.5 mg/kg/injection, schedule: Q01DX010 (ip), vehicle: saline 104 % of control | dose: 5.0 mg/kg/injection, schedule: Q01DX010 (ip), vehicle: other 90 % of control and 100 % of control | dose: 5.0 mg/kg/injection, schedule: Q01DX010 (ip), vehicle: saline 100 % of control
active: dose: 1.25 mg/kg/injection, schedule: Q01DX010 (ip), vehicle: saline 159 % of control

COc1cc(Br)c2c(c1OC)C(=O)CC2
inactive: [6] 104 % of control | [11] 100 % of control | [10] 95 % of control | [12] 91 % of control | dose: 400.0 mg/kg/injection, schedule: Q01DX009 (ip), vehicle: Klucel (hydroxypropylcellulose) (HPC) 100 % of control | [13] 95 % of control

OC(c1ccc(Cl)cc1)C1CCNCC1 (stereo not drawn)
inactive: [5] 90 % of control | [3] 102 % of control

CCCCCC#CC1OC12CCCCC2 (stereo not drawn)
inactive: [1] 124 % of control | [14] 119 % of control | [15] 102 % of control

O=C(O)C(=O)O.[U]
inactive: dose: 25.0 mg/kg/injection, schedule: Q04DX003 (ip), vehicle: saline with Tween-80 100 % of control

CCOc1ccc(S(=O)(=O)c2ccc(C)cc2)c2c1no[n+]2[O-]
inactive: [16] 102 % of control

O=C(Nc1nncs1)c1cnccn1
active: dose: 400.0 mg/kg/injection, schedule: Q04DX002 (ip), vehicle: saline with Tween-80 168 % of control
inactive: dose: 50.0 mg/kg/injection, schedule: Q04DX002 (ip), vehicle: saline with Tween-80 98 % of control | dose: 100.0 mg/kg/injection, schedule: Q04DX002 (ip), vehicle: saline with Tween-80 97 % of control | dose: 200.0 mg/kg/injection, schedule: Q04DX002 (ip), vehicle: saline with Tween-80 104 % of control

O=S1(=O)C=C(Cl)C2C3CC(C(Cl)C3Cl)C21 (stereo not drawn)
inactive: dose: 7.5 mg/kg/injection, schedule: Q01DX009 (ip), vehicle: saline with Tween-80 100 % of control | [16] 113 % of control | dose: 30.0 mg/kg/injection, schedule: Q01DX009 (ip), vehicle: saline with Tween-80 104 % of control

N#CC1C(=O)NC(=O)C(C#N)C12CCCCC2 (stereo not drawn)
inactive: dose: 50.0 mg/kg/injection, schedule: Q01DX005 (ip), vehicle: saline with Tween-80 100 % of control | dose: 50.0 mg/kg/injection, schedule: Q04DX003 (ip), vehicle: saline with Tween-80 110 % of control | dose: 100.0 mg/kg/injection, schedule: Q01DX005 (ip), vehicle: saline with Tween-80 100 % of control | [7] 120 % of control | dose: 200.0 mg/kg/injection, schedule: Q01DX005 (ip), vehicle: saline with Tween-80 109 % of control | [8] 105 % of control

CC(=O)OC1OC(CSC(=N)N)C(OC(C)=O)C(OC(C)=O)C1OC(C)=O (stereo not drawn)
inactive: [1] 116 % of control | [14] 119 % of control | [15] 110 % of control

C=CC12COC(=O)C(=C)C1C(O)C1C(=C)C(=O)OC1C2 (stereo not drawn)
inactive: dose: 3.75 mg/kg/injection, schedule: Q01DX009 (ip), vehicle: saline + alcohol 113 % of control | dose: 15.0 mg/kg/injection, schedule: Q01DX009 (ip), vehicle: saline + alcohol 90 % of control

O=[N+]([O-])c1cccc(Oc2ncccc2[N+](=O)[O-])c1
inactive: dose: 65.0 mg/kg/injection, schedule: Q04DX003 (ip), vehicle: Klucel (hydroxypropylcellulose) (HPC) 118 % of control | [11] 109 % of control | dose: 150.0 mg/kg/injection, schedule: Q04DX003 (ip), vehicle: Klucel (hydroxypropylcellulose) (HPC) 109 % of control | [12] 105 % of control | [13] 115 % of control
